{"source": "patent US20110009351A1", "about": "“SCREENING ASSAY TO IDENTIFY CORRECTORS OF PROTEIN TRAFFICKING DEFECTS” (Traffick Therepeutics Inc., priority 2007, published 2011)", "key": {"ΔF508-CFTR [1]": {"molecular_target": "ΔF508-CFTR (Homo sapiens, UniProt P13569, DEL508-508)", "sequence (P13569 with tags, fused parts or gaps DEL508-508)": "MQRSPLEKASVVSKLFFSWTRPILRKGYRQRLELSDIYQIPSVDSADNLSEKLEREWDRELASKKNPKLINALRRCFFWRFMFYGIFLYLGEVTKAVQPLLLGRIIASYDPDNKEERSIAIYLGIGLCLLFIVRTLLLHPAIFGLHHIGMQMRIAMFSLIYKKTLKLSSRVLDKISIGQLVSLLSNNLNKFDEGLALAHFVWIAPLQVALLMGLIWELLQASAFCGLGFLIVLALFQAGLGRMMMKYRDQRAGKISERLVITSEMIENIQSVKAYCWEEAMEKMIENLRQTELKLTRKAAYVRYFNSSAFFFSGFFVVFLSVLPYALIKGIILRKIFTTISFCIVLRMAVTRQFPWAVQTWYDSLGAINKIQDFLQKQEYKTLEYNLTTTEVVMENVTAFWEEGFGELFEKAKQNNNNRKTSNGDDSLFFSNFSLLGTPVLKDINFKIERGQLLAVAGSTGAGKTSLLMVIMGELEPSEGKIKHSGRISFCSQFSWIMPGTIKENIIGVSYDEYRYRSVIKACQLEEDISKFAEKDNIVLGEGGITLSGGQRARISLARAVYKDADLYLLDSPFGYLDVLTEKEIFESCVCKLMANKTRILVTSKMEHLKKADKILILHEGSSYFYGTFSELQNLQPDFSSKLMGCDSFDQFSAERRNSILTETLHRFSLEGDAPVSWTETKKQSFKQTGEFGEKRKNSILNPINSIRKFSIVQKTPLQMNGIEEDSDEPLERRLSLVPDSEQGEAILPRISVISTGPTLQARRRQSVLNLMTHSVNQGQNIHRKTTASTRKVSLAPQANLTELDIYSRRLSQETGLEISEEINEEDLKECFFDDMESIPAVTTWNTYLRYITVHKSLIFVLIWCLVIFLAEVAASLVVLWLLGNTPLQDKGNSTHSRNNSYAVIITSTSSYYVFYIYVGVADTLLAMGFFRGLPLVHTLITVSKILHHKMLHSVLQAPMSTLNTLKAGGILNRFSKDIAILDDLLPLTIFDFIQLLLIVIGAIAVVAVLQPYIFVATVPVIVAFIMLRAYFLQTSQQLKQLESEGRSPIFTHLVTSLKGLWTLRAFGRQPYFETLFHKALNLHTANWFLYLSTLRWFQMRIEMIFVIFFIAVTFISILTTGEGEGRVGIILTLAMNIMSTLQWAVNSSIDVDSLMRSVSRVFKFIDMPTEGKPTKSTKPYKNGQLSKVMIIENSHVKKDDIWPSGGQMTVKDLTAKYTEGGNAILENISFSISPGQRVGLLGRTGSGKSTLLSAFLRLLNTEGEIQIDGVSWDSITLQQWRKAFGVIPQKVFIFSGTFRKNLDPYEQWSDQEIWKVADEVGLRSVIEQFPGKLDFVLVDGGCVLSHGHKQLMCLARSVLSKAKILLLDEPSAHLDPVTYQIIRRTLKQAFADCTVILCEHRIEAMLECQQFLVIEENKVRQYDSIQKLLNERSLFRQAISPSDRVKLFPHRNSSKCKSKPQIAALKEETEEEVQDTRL", "assay": "short-circuit current (Isc) across CFBE41o− monolayers in Ussing chambers", "assay_type": "cell-based", "design": "expressed in transfected cells; host or cells: CFBE41o- (ΔF508/ΔF508) transduced with ΔF508-CFTR, TranzVector lentivirus, provided by J. P. Clancy", "conditions": "10 μM, 24 h", "description": "Short-circuit current (Isc) was measured across monolayers in modified Ussing chambers. 1×10^6 CFBE41o^− cells were seeded onto 12-mm fibronectin-coated Snapwell inserts (Corning Incorporated, Life Sciences, New-York, N.Y.) and the apical medium was removed after 24 h. Transepithelial resistance was monitored using an EVOM epithelial voltohmmeter (World Precision Instruments, Sarasota, Fla.) and cells were used when the transepithelial resistance was 300-400 ohms·cm^2. In some experiments, F508del-CFBE41o^− monolayers were incubated at 29° C. or treated with glafenine at 37° C. for 24 h before being mounted in EasyMount chambers and voltage clamped using a VCCMC6 multichannel current-voltage clamp (Physiologic Instruments, San Diego, Calif.). The apical membrane conductance was functionally isolated by permeabilizing the basolateral membrane with 200 μg/ml nystatin and imposing an apical-to-basolateral Cl^− gradient. For these experiments the basolateral bathing solution contained (in mM) 1.2 NaCl, 115 Na-gluconate, 25 NaHCO3, 1.2 MgCl2, 4 CaCl2, 2.4, KH2PO4, 1.24 K2HPO4, 10 glucose (pH 7.4 with NaOH). The CaCl2 concentration was increased to 4 mM to compensate for the chelation of calcium by gluconate. The apical bathing solution contained (in mM) 115 NaCl, 25 NaHCO3, 1.2 MgCl2, 1.2 CaCl2, 2.4 KH2PO4, 1.24 K2HPO4, 10 mannitol (pH 7.4 with NaOH). […]"}, "ΔF508-CFTR [2]": {"molecular_target": "T1, ΔF508-CFTR (Mus musculus, UniProt P26361, DEL508-508)", "T1 construct": "from tissue; host or cells: ileal mucosa of homozygous ΔF508 mice (A11 ex vivo, A12 after gavage); salivary secretion in the living mouse (A13)", "T1 sequence (P26361 with tags, fused parts or gaps DEL508-508)": "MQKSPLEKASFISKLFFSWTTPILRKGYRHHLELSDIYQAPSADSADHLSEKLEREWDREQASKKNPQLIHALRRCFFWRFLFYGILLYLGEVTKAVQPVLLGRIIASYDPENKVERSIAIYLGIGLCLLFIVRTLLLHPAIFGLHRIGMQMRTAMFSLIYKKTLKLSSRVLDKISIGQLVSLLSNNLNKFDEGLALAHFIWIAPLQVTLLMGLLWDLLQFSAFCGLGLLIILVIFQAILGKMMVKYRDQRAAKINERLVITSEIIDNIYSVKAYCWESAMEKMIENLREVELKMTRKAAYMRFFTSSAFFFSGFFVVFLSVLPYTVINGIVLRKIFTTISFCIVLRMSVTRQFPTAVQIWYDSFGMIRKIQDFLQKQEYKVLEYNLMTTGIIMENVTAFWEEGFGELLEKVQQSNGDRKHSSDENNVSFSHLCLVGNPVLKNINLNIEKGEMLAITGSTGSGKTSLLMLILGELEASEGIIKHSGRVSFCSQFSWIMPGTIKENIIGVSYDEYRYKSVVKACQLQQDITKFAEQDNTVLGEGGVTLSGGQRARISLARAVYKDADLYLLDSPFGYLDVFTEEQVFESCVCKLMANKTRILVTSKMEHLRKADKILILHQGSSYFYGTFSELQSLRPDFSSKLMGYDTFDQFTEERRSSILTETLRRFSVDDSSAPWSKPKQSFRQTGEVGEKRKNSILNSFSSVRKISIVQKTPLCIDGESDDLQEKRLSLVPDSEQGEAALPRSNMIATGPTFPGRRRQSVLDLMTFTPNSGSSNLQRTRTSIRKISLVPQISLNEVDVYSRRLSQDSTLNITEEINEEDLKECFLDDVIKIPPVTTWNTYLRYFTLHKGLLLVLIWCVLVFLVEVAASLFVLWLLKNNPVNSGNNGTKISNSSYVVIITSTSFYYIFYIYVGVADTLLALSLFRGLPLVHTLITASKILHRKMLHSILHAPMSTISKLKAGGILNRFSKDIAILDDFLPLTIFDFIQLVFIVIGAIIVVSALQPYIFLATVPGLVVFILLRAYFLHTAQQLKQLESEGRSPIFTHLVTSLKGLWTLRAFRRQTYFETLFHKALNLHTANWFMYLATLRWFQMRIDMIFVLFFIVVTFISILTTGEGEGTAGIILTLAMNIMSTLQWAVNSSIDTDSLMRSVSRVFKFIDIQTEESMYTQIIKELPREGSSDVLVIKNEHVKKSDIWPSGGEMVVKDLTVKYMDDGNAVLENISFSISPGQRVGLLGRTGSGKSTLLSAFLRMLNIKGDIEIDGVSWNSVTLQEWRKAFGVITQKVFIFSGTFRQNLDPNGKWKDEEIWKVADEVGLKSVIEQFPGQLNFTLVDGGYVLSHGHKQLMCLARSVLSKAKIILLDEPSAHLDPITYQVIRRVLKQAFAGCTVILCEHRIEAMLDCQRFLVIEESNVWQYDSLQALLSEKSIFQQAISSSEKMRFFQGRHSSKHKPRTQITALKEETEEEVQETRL", "assay": "salivary secretion assay in ΔF508-CFTR mice", "assay_type": "in vivo", "description": "The procedure followed those recently described by Best & Quinton (Best and Quinton, 2005). Homozygous Δ508-CFTR mice (CFTR^tm1 Eur) and wild-type mice of the same strain were 10-12 weeks old and weighed 20-25 g. They were fed once a day by gavage with saline containing glafenine (50 mg/kg) or vehicle alone (0.1% DMSO) for 2 days. The mice were anaesthetized with ketamine and diazepam on the day of the experiment, then pretreated with a subcutaneous injection of 1 mM atropine into the left cheek. Small strips of Whatman filter paper were placed inside the previously injected cheek for ˜4 min to absorb any salivary secretions. A solution containing 100 μM isoprenaline and 1 mM atropine was then injected into the left cheek at the same site to induce secretion at time zero and the filter paper was replaced every minute for 30 minutes. Each piece of filter paper was immediately placed and sealed in a pre-weighed vial and the time of removal was recorded. The rate of salivary secretion per min and total amount were normalized to the mass of the mouse in grams."}, "ΔF508-CFTR [3]": {"molecular_target": "T1, ΔF508-CFTR", "assay": "in vivo treatment of ΔF508-CFTR mice by gavage, Isc of freshly isolated ileum", "conditions": "50 mg/kg by gavage, once per day, 2 days", "description": "Glafenine was tested ex vivo and in vivo using ileum from homozygous Δ508-CFTR mice (CFTR^tm1 Eur; van Doorninck et al., 1995) and wild-type littermates controls. Mice were 14-17 weeks old, weighed 24-30 g, and were genotyped by standard PCR methods using tail DNA. The mice were kept in a pathogen-free environment in the animal facility at McGill University and fed a high protein diet (SRM-A, Hope Farms, Woerden, NL) modified to contain pork instead of beef. All procedures followed Canadian Institutes of Health Research (CIHR) guidlines and were approved by the faculty Animal Care Committee. For ex vivo experiments, ileal mucosa was stripped of muscle and incubated in William's E-Glutamax medium supplemented with insulin (10 μg/ml), 100 U/ml penicillin, and 100 μg/ml streptomycin and dexamethasone (1.6 ng/ml) containing 0.1% DMSO (control) or DMSO containing glafenine for 5 h. The tissue was then rinsed repeatedly and mounted in Ussing chambers to measure […]. For in vivo experiments, mice were feed once per day by gavage with saline containing glafenine (50 mg/kg) or vehicle alone (0.1% DMSO). After 2 days of glafenine treatment the mice were euthanized under CO2, the intestine was dissected and the short circuit current was measured as described above."}}, "note": "Structures can show the parent of a compound that is named as a salt.", "data": [{"compound": "O=C(OCC(O)CO)c1ccccc1Nc1ccnc2cc(Cl)ccc12", "note": "(stereo not shown) [Glafenine hydrochloride, 2-[(7-chloro-4-quinolinyl)amino]benzoic acid 2,3-dihydroxypropyl ester]", "values": [{"measurement": "increase of forskolin+genistein-stimulated Isc compared with DMSO controls", "setting": "ΔF508-CFTR [1]", "result": "about 2.5 fold"}, {"measurement": "restored share of the total salivary response", "setting": "ΔF508-CFTR [2]; 50 mg glafenine per kg", "result": 15, "unit": "%"}, {"measurement": "maximum rate of saliva production relative to WT mice", "setting": "ΔF508-CFTR [2]; 50 mg/kg by gavage, 2 days, isoprenaline with atropine, control CF mice 5%", "result": 15, "unit": "%"}, {"measurement": "forskolin+genistein-stimulated current compared to mice fed with saline alone", "setting": "ΔF508-CFTR [3]", "result": "~7", "unit": "fold"}]}]}
